# Reference: US8507464B2, “Phosphoramidate alkylator prodrugs” (Threshold Pharmaceuticals, Inc., priority 2005, dated 2013)
# Like-named read-outs stand apart in the source and are kept apart here.
# Assays:
# H460 cell line = test: Anti-proliferation assay, hypoxia vs normoxia (Table 1A); settings: for IC50: Homo sapiens; for HCR P: ratio of IC50 in normoxia and hypoxia
# NCI-H460 cells [1] = test: Antiproliferation assay (Alamar Blue), anoxia vs air
# [2] = assay type: physicochemical; settings: glassy carbon, Ag/AgCl reference; for Reduction Potentials, 10,000 mV/sec: scan rate 10,000 mV/sec
# NCI-H460 cells [3] = test: Antiproliferation assay - oxygen dependence; assay type: cell-based, human
# Source text: . […] The calculated IC50 values (μM) are tabulated in Table Y1 (H460 cells) or Table Y2 (HT29 cells) below.
# [4] = NCI-H460, read-out: Hypoxia P (proliferation IC50)
# [5] = NCI-H460, read-out: Normoxia P (proliferation IC50)
# [6] = Homo sapiens, NCI-H460, 2 h, read-out: IC50 H460 Air, air, 2 h exposure
# [7] = Homo sapiens, NCI-H460, 2 h, read-out: IC50 H460 Anoxia, anoxia, 2 h exposure
# [8] = read-out: IC50 H460 Air, air, 2 h exposure
# [9] = read-out: IC50 H460 Anoxia, anoxia, 2 h exposure
# [10] = Homo sapiens, NCI-H460, read-out: IC50 in H460 cells, 0.6% O2
# [11] = Homo sapiens, NCI-H460; read-out: IC50 in H460 cells, Air
# [12] = Homo sapiens, NCI-H460; read-out: IC50 in H460 cells, N2
# [13] = Air; read-out: IC50 in H460 cells, Air
# [14] = read-out: IC50 in H460 cells, 0.6% O2
# [15] = Homo sapiens, NCI-H460, read-out: IC50 in H460 cells, Air
# [16] = Homo sapiens, NCI-H460, read-out: IC50 in H460 cells, N2
Structure (SMILES),IC50 (H460 cell line; [4]) [µM],IC50 (H460 cell line; [5]) [µM],HCR P (H460 cell line),IC50 (NCI-H460 cells [1]; [6]) [µM],IC50 (NCI-H460 cells [1]; [7]) [µM],IC50 (NCI-H460 cells [3]; [10]) [µM],further results
O=[N+]([O-])c1ccc(COP(=O)(NCCCCNP(=O)(OCc2ccc([N+](=O)[O-])o2)N(CCCl)CCCl)N(CCCl)CCCl)o1 (centres unmarked) [Compound 20],1,8.5,8,,,,
Cn1c(COP2(=O)N(CCCl)CCN2CCCl)cnc1[N+](=O)[O-] [Compound S2],7,> 100,>14,,,,
CN(C)P(=O)(OCc1cnc([N+](=O)[O-])n1C)N(CCCl)CCCl (centres unmarked) [Compound 4],40,> 100,>2,> 100,40,,
CC(C)N(CCCl)P(=O)(OCc1cnc([N+](=O)[O-])n1C)N(CCCl)C(C)C [Compound 14],8.5,> 100,>12,> 100,8.5,,
Cc1csc(C(C)OP(=O)(NCCBr)NCCBr)c1[N+](=O)[O-] (centres unmarked) [Compound 103],,,,,,,"IC50 (NCI-H460 cells [1]; [8]): 2 µM; IC50 (NCI-H460 cells [1]; [9]): 0.02 µM; Reduction Potentials, 10,000 mV/sec [2]: −756 mV"
"O=[N+]([O-])c1ccc(COP(=O)(N(CCCl)CCCl)N(CCCl)CCCl)o1 [Compound P22, reference compound]",4.5,3.5,ca. 1,,,,
O=[N+]([O-])c1ccc(COCOP(=O)(NCCCl)NCCCl)o1 [Compound 31],83,> 100,>1,> 100,83,,
CN(CCCl)P(=O)(OCc1c(F)c(F)c(OCc2ncc([N+](=O)[O-])n2C)c(F)c1F)N(C)CCCl [Compound 17],1,9,9,9,1,,
CN(CCCl)P(=O)(OCc1ncc([N+](=O)[O-])n1C)N(C)CCCl [Compound 9],> 10,> 100,>10,> 100,> 10,,
COc1cc(COP(=O)(N[C@H](C)CCl)N[C@H](C)CCl)ccc1OCc1cnc([N+](=O)[O-])n1C [Compound 54],,,,60,1,30,IC50 (NCI-H460 cells [3]; [11]): 60 µM; IC50 (NCI-H460 cells [3]; [12]): 1 µM
N#Cc1cc(C#CCOP(=O)(NCCBr)NCCBr)sc1[N+](=O)[O-] [Compound 98],,,,,,,IC50 (NCI-H460 cells [1]; [8]): 2 µM; IC50 (NCI-H460 cells [1]; [9]): 0.1 µM; IC50 (NCI-H460 cells [3]; [13]): 2 µM; IC50 (NCI-H460 cells [3]; [14]): 0.5 µM
O=[N+]([O-])c1ccc(COP(=O)(NCCOS(=O)(=O)c2ccccc2)NCCOS(=O)(=O)c2ccccc2)o1 [Compound 106],,,,,,0.7,"IC50 (NCI-H460 cells [1]; Homo sapiens, NCI-H460, 2 h, read-out: IC50 H460 Air): 3.5 µM; IC50 (NCI-H460 cells [1]; Homo sapiens, NCI-H460, 2 h, read-out: IC50 H460 Anoxia): 0.09 µM; IC50 (NCI-H460 cells [3]; [11]): 4 µM; IC50 (NCI-H460 cells [3]; [12]): 0.1 µM"
CC#Cc1cc(COP(=O)(NCCBr)NCCBr)sc1[N+](=O)[O-] [Compound 99],,,,,,,IC50 (NCI-H460 cells [1]; [8]): 1 µM; IC50 (NCI-H460 cells [1]; [9]): 0.1 µM; IC50 (NCI-H460 cells [3]; [13]): 1 µM; IC50 (NCI-H460 cells [3]; [14]): 0.5 µM
CCN(CCOP(=O)(NCCBr)NCCBr)C(=O)OCc1cnc([N+](=O)[O-])n1C [Compound 62],,,,45,2,30,IC50 (NCI-H460 cells [3]; [15]): 45 µM; IC50 (NCI-H460 cells [3]; [16]): 2 µM
Cn1c([N+](=O)[O-])cnc1COc1ccc(COP(N)(=O)N(CCCl)CCCl)cc1 (centres unmarked) [Compound S1],> 40,> 100,>3,,,,
Cn1c(COc2ccc(COP(=O)(NCCBr)NCCBr)cc2F)cnc1[N+](=O)[O-] [Compound 50],,,,3,0.1,3,IC50 (NCI-H460 cells [3]; [15]): 3 µM
O=[N+]([O-])c1ccc(-c2ccc(COP(=O)(NCCBr)NCCBr)cc2)o1 [Compound 55],,,,12,5,8,IC50 (NCI-H460 cells [3]; [15]): 12 µM; IC50 (NCI-H460 cells [3]; [16]): 5 µM
Cc1csc(C(C)OP(=O)(NCCCl)NCCCl)c1[N+](=O)[O-] (centres unmarked) [Compound 100],,,,,,,"IC50 (NCI-H460 cells [1]; [8]): 35 µM; IC50 (NCI-H460 cells [1]; [9]): 0.5 µM; IC50 (NCI-H460 cells [3]; [13]): 35 µM; IC50 (NCI-H460 cells [3]; N2; read-out: IC50 in H460 cells, N2): 0.5 µM; IC50 (NCI-H460 cells [3]; [14]): 10 µM"
CC(C)[C@H](CCl)NP(=O)(N[C@@H](CCl)C(C)C)OCc1ccc([N+](=O)[O-])s1 [Compound 44],,,,100,3,45,IC50 (NCI-H460 cells [3]; [11]): > 100 µM
C[C@H](CBr)NP(=O)(N[C@H](C)CBr)OCc1cnc([N+](=O)[O-])n1C [Compound 66],,,,,,,"IC50 (NCI-H460 cells [1]; read-out: IC50 H460 Anoxia): 0.3 µM; IC50 (NCI-H460 cells [3]; [14]): 20 µM; IC50 (NCI-H460 cells [3]; read-out: IC50 in H460 cells, N2): 0.3 µM"
"O=[N+]([O-])c1ncc[nH]1 [2-NO2-Imidazole, reference compound]",,,,,,,"Reduction Potentials, 100 mV/sec ([2]; scan rate 100 mV/sec): −634 mV; Reduction Potentials, 10,000 mV/sec [2]: −693 mV"

Structure (SMILES),IC50 (H460 cell line; [4]) [µM],IC50 (H460 cell line; [5]) [µM],HCR P (H460 cell line),IC50 (NCI-H460 cells [1]; [6]) [µM],IC50 (NCI-H460 cells [1]; [7]) [µM],IC50 (NCI-H460 cells [3]; [10]) [µM],further results
Cn1c([N+](=O)[O-])cnc1COc1ccc(COP(N)(=O)N(CCCl)CCCl)cc1F (centres unmarked) [Compound 3],> 20,> 100,>5,> 100,> 20,,
O=[N+]([O-])c1ccc(-c2ccc(COP(=O)(NCCBr)NCCBr)cc2)s1 [Compound 53],,,,10,3,5,IC50 (NCI-H460 cells [3]; [15]): 10 µM
CC(C)[C@@H](CCl)NP(=O)(N[C@H](CCl)C(C)C)OCc1ccc([N+](=O)[O-])o1 [Compound 46],,,,> 100,5,50,IC50 (NCI-H460 cells [3]; [11]): 100 µM
CCN(CCCl)P(=O)(OCc1cnc([N+](=O)[O-])n1C)N(CC)CCCl [Compound 15],0.08,1,12,1,0.08,,
O=[N+]([O-])c1ccc(COP2(=O)N(CCBr)CCN2CCBr)s1 [Compound 110],,,,21,0.3,3,IC50 (NCI-H460 cells [3]; [15]): 25 µM; IC50 (NCI-H460 cells [3]; [16]): 0.3 µM
C[C@@H](CCl)NP(=O)(N[C@@H](C)CCl)OCc1cnc([N+](=O)[O-])n1C [Compound 38],,,,> 100,0.33,45,"IC50 (NCI-H460 cells [3]; Homo sapiens, NCI-H460, read-out: IC50 in H460 cells, 1% O2): > 100 µM; IC50 (NCI-H460 cells [3]; [12]): 0.4 µM"
O=[N+]([O-])c1ccc(COP(=O)(N(CCCl)CCCl)N2CCOCC2)o1 (centres unmarked) [Compound 12],1.7,> 100,>50,> 100,1.7,,
COc1cc(COP(=O)(N(C)CCCl)N(C)CCCl)ccc1OCc1cnc([N+](=O)[O-])n1C [Compound 18],3.4,9,3,9,3.4,,
CC(OP(N)(=O)N(CCCl)CCCl)c1ncc([N+](=O)[O-])n1C (centres unmarked) [Compound 2],8,> 100,>12,> 100,8,,
COc1cc(COP(=O)(NCCBr)NCCBr)ccc1OCc1cnc([N+](=O)[O-])n1C [Compound 56],,,,10,0.5,8,IC50 (NCI-H460 cells [3]; [15]): 10 µM; IC50 (NCI-H460 cells [3]; [16]): 0.5 µM
O=[N+]([O-])c1ccc(COP(=O)(N(CCCl)CCCl)N2CCCC2)o1 (centres unmarked) [Compound 11],5.2,> 100,>20,> 100,5.2,,
CN(CCCl)P(=O)(OCc1ccc([N+](=O)[O-])o1)N(C)CCCl [Compound 8],0.01,0.6,60,0.6,0.013,,
CCCn1c(COP(=O)(NCCBr)NCCBr)cnc1[N+](=O)[O-] [Compound 84],,,,40,0.003,3,IC50 (NCI-H460 cells [3]; [15]): 40 µM
CC(C)[C@@H](CCl)NP(=O)(N[C@H](CCl)C(C)C)OCc1ccc([N+](=O)[O-])s1 [Compound 47],,,,> 100,4,60,IC50 (NCI-H460 cells [3]; [11]): 100 µM
Cn1c(COc2ccc(COP(N)(=O)N(CCCl)CCCl)cc2F)cnc1[N+](=O)[O-] (centres unmarked) [Compound 22],0.7,16,23,16,0.7,,
O=[N+]([O-])c1cnc(-c2ccc(COP(=O)(NCCBr)NCCBr)cc2)s1 [Compound 63],,,,8,1,15,IC50 (NCI-H460 cells [3]; [15]): 8 µM; IC50 (NCI-H460 cells [3]; [16]): 1 µM
Cn1c(COP(=O)(NCCCl)NCCCl)nc(Br)c1[N+](=O)[O-] [Compound 32],50,100,2,100,50,,
O=[N+]([O-])c1ccc(COP(=O)(NCCNP(=O)(OCc2ccc([N+](=O)[O-])o2)N(CCCl)CCCl)N(CCCl)CCCl)o1 (centres unmarked) [Compound 21],0.25,7.8,26,,,,
O=[N+]([O-])c1ccc(COP2(=O)N(CCBr)CCN2CCBr)o1 [Compound 109],,,,13,0.3,10,IC50 (NCI-H460 cells [3]; [15]): 15 µM; IC50 (NCI-H460 cells [3]; [16]): 0.3 µM
Cn1c(COc2ccc(COP(=O)(NCCCl)NCCCl)cc2F)cnc1[N+](=O)[O-] [Compound 27],2.5,100,40,100,,,
